Experiments:
[1] = biological target: EP300 (Homo sapiens, UniProt Q09472); assay: Histone acetyltransferase inhibitory activity against EP300 (Test Example 1); assay type: biochemical; conditions: 50 ng/mL EP300, 2 μM Acetyl-CoA, 100 nM Histone H4(1-25)-GSGSK (Biotin), 28° C. for 1 hour
Summary of the method: (§1)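 Enzyme (50 ng/mL EP300 or 125 ng/mL CREBBP) incubated 1 h at 28° C with 2 μM acetyl-CoA, 100 nM biotinylated histone H4(1-25) peptide and 10 to 0.0006 μM compound in pH 8.0 Tris buffer with 330 nM trichostatin A, 1% DMSO. Reaction stopped with Lys-CoA; acetylation read by TR-FRET (Eu-anti pan-Ac/Sta-ULight) after overnight room-temperature incubation.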

[2] = biological target: CREBBP (Homo sapiens, UniProt Q92793); assay: Histone acetyltransferase inhibitory activity against CREBBP (Test Example 1); assay type: biochemical; conditions: 125 ng/mL CREBBP, 2 μM Acetyl-CoA, 100 nM Histone H4(1-25)-GSGSK (Biotin), 28° C. for 1 hour
Summary of the method: as §1

[3] = system: H3K27Ac; assay: Intracellular H3K27Ac inhibitory activity in LK2 cells (Test Example 2); assay type: cell-based; conditions: Homo sapiens, LK-2, cultured with compound for 3 hours, read-out: Test Example 2 H3K27Ac Inhibition (LK2) IC50
Summary of the method: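 Human squamous lung cancer LK2 cells (40000/well) cultured overnight at 37 °C, 5% CO2 before treatment. After paraformaldehyde fixation, peroxide quench and blocking, H3K27 acetylation detected with anti-acetyl-H3K27 rabbit mAb (4 °C overnight) and HRP secondary; chemiluminescent read-out.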

[4] = system: LK2 cells; assay: Cell growth inhibitory activity, LK2 cells (Test Example 3); assay type: cell-based; conditions: Homo sapiens, LK-2, 72 h, cultured for 3 days, CellTiter-Glo
Summary of the method: (§2)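 LK2 and TE-8 […] cells in RPMI 1640 with 10% FBS exposed to 10-point 4-fold dilutions (10 mM to 38 nM, stock series) for 3 days. ATP luminescence (CellTiter-Glo 2.0) at day 0 and day 3 gave survival as (T3−C0)/(C3−C0)×100; GI50 from semilog plot.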

[5] = system: TE-8 cells; assay: Cell growth inhibitory activity, TE-8 cells (Test Example 3); assay type: cell-based; conditions: Homo sapiens, 72 h, cultured for 3 days, CellTiter-Glo
Summary of the method: as §2

[6] = system: NMC10-15 cells; assay: Antitumor activity in NMC10-15 cell subcutaneous transplant model (Test Example 7); assay type: in vivo, female BALB/c-nu/nu mice; conditions: NMC10-15 subcutaneous transplant model, oral, QD×9, 15 days after transplantation
Description: [Test Example 7] Evaluation of Antitumor Activity in NMC10-15 Cell Subcutaneous Transplant Model
(§3) NMC10-15 cells derived from human nut midline carcinoma were transplanted at a rate of 5×10^6 cells/head subcutaneously into a right abdominal site of each of female BALB/c-nu/nu mice, and 6 days after, the mice were grouped into groups each consisting of 5 mice based on an estimated tumor volume (longer diameter×shorter diameter×shorter diameter/2) and the weight. […] The estimated tumor volume of each individual was measured from the day of grouping until 15 days after the transplantation (test end day).
(§4) The antitumor activity in LK2 cell subcutaneous transplant model of Test Example 4, the antitumor activity in TE-8 cell subcutaneous transplant model of Test Example 5, the antitumor activity in KARPASS-422 cell subcutaneous transplant model of Test Example 6, the antitumor activity in NMC10-15 cell subcutaneous transplant model of Test Example 7, and the antitumor activity in VCaP cell subcutaneous transplant model of Test Example 8 were respectively calculated on the end dates of the tests in accordance with the following equation: Tumor Growth Inhibition Rate %=(1−TVCt/TVCc)×100 TVC=(individual tumor volume on test end day)−(individual tumor volume on grouping day) […]

[7] = system: VCaP cells; assay: Antitumor activity in VCaP cell subcutaneous transplant model (Test Example 8); assay type: in vivo, male NSG mice; conditions: oral
Description: [Test Example 8] Evaluation of Antitumor Activity in VCaP Cell Subcutaneous Transplant Model
VCaP cells derived from human prostate cancer were transplanted at a rate of 1×10^7 cells/head subcutaneously into a right abdominal site of each of male NSG mice, and 8 days after, the mice were grouped into groups each consisting of 5 mice based on an estimated tumor volume (longer diameter×shorter diameter×shorter diameter/2) and the weight. The VCaP cells were purchased from American Type Culture Collection. […] The estimated tumor volume of each individual was measured from the day of grouping until 24 days after the transplantation (test end day).
as §4

[8] = system: LK2 cells; assay: Antitumor activity in LK2 cell subcutaneous transplant model (Test Example 4); assay type: in vivo, female BALB/c-nu/nu mice; conditions: test end day
Description: [Test Example 4] Evaluation of Antitumor Activity in LK2 Cell Subcutaneous Transplant Model
as §3, with “LK2” for “NMC10-15”, “cells” for “cells derived from human nut midline carcinoma”, “2×10^6” for “5×10^6”, “7” for “6”, “weight. The LK2 cells were purchased from Human Science Research Resources Bank.” for “weight.”, “18” for “15”
(§5) The antitumor activity in LK2 cell subcutaneous transplant model of Test Example 4, the antitumor activity in TE-8 cell subcutaneous transplant model of Test Example 5, the antitumor activity in KARPASS-422 cell subcutaneous transplant model of Test Example 6, the antitumor activity in NMC10-15 cell subcutaneous transplant model of Test Example 7, and the antitumor activity in VCaP cell subcutaneous transplant model of Test Example 8 were respectively calculated on the end dates of the tests in accordance with the following equation: Tumor Growth Inhibition Rate %=(1−TVCt/TVCc)×100 TVC=(individual tumor volume on test end day)−(individual tumor volume on grouping day)
TVCt: average of TVC values of administration group […]

[9] = system: TE-8 cells; assay: Antitumor activity in TE-8 cell subcutaneous transplant model (Test Example 5); assay type: in vivo, female BALB/c-nu/nu mice; conditions: TE-8 subcutaneous transplant model, dose 6 mg/kg/day, test end day
Description: [Test Example 5] Evaluation of Antitumor Activity in TE-8 Cell Subcutaneous Transplant Model
TE-8 cells were transplanted at a rate of 1×10^7 cells/head subcutaneously into a right abdominal site of each of female BALB/c-nu/nu mice, and 9 days after (Example 73) or 10 days after (Examples 35 and 84), the mice were grouped into groups each consisting of 5 mice based on an estimated tumor volume (longer diameter×shorter diameter×shorter diameter/2) and the weight. The TE-8 cells were purchased from Riken Cell Bank. The female BALB/c-nu/nu mice were purchased from Charles River Laboratories Japan, Inc.
(§6) From the day of grouping, the compound of Example 73 at a dose set to 2 mg/kg/day was orally administered in accordance with a schedule of twice a day continuously for 9 days (BID x 9). The estimated tumor volume of each individual was measured from the day of grouping until 18 days after the transplantation (test end day).
as §6, with “Besides, from” for “From”, “[…]” for “73”, “11” for “9”, “11).” for “9).”, “21” for “18”
as §5
TVCt: average of TVC values of administration group
TVCc: average of TVC values of non-administration group

[10] = system: KARPAS-422 cells; assay: Antitumor activity in KARPAS-422 cell subcutaneous transplant model (Test Example 6); assay type: in vivo, female SCID mice; conditions: KARPAS422 subcutaneous transplant model, dose 6 mg/kg/day, test end day
Description: [Test Example 6] Evaluation of Antitumor Activity in KARPAS-422 Cell Subcutaneous Transplant Model
KARPAS-422 cells of human diffuse large B-cell lymphoma were transplanted at a rate of 2×10^7 cells/head subcutaneously into a right abdominal site of each of female SCID mice, and 10 days after, the mice were grouped into groups each consisting of 5 mice based on an estimated tumor volume (longer diameter×shorter diameter×shorter diameter/2) and the weight. The KARPAS-422 cells were purchased from Deutsche Sammlung von Mikroorganismen und Zelkulturen GmbH. […] The estimated tumor volume of each individual was measured from the day of grouping until 28 days after the transplantation (test end day).
as §4

Sequence of CREBBP (Q92793 whole entry): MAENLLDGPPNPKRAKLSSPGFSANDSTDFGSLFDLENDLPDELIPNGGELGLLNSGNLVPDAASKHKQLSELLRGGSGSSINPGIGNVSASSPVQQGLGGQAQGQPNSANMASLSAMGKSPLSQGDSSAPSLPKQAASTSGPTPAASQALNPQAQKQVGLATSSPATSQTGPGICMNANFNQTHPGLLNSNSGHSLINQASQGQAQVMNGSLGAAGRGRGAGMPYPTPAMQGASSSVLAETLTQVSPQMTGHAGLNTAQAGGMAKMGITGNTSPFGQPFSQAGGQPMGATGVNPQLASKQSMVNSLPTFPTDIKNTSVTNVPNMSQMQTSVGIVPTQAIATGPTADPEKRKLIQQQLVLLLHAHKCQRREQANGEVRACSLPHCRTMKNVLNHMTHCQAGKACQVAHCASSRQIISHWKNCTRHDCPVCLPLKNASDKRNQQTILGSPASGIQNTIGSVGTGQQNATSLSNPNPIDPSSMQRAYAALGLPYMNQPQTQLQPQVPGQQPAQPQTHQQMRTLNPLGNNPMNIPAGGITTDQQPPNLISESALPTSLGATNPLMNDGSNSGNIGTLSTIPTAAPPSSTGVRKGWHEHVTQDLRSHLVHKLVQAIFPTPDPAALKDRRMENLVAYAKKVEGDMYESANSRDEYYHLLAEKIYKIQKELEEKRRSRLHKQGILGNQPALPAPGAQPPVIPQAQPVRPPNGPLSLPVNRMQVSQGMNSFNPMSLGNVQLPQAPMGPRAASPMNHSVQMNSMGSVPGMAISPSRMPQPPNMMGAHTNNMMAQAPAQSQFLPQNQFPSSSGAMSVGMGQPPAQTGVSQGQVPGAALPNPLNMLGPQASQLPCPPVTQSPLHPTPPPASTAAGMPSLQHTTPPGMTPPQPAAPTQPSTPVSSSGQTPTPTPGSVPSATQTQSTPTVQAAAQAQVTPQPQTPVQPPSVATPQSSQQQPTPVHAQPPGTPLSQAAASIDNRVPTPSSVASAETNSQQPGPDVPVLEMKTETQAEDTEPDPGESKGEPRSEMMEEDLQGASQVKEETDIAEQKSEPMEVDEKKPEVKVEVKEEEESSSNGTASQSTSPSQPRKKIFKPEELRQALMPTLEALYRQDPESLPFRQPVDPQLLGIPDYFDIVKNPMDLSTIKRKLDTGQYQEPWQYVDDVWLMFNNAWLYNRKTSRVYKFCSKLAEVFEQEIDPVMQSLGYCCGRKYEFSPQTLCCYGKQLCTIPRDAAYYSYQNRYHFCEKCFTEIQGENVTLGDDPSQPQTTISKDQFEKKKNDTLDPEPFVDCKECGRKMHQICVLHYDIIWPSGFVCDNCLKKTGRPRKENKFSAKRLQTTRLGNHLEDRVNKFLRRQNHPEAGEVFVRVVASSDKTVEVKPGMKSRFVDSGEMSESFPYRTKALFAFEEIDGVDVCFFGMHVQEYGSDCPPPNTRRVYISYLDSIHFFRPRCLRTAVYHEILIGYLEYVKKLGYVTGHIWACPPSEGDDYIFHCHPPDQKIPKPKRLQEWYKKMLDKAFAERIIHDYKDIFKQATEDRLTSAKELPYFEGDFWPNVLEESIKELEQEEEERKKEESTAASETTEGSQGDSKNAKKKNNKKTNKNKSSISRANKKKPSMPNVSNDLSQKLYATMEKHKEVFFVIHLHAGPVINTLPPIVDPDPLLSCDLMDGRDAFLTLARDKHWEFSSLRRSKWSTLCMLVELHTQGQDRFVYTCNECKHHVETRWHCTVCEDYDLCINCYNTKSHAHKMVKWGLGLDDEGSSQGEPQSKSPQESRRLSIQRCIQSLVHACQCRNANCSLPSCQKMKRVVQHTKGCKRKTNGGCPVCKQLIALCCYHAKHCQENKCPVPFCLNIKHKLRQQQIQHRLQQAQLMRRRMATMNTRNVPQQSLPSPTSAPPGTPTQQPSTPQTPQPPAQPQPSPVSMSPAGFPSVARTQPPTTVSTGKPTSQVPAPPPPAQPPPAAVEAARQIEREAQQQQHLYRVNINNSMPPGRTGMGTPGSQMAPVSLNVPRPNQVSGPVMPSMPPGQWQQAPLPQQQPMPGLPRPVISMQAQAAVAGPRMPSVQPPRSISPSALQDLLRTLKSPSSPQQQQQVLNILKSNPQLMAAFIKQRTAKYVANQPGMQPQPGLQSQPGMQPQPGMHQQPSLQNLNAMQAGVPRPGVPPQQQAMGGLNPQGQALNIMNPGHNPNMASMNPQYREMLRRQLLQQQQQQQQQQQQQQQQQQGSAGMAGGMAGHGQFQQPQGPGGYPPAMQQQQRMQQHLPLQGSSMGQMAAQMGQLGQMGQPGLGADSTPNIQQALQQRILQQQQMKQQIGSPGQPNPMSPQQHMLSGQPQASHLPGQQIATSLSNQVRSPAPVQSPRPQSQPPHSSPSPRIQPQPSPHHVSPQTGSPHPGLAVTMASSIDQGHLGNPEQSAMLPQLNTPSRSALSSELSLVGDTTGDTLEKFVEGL
Sequence of EP300 (Q09472 whole entry): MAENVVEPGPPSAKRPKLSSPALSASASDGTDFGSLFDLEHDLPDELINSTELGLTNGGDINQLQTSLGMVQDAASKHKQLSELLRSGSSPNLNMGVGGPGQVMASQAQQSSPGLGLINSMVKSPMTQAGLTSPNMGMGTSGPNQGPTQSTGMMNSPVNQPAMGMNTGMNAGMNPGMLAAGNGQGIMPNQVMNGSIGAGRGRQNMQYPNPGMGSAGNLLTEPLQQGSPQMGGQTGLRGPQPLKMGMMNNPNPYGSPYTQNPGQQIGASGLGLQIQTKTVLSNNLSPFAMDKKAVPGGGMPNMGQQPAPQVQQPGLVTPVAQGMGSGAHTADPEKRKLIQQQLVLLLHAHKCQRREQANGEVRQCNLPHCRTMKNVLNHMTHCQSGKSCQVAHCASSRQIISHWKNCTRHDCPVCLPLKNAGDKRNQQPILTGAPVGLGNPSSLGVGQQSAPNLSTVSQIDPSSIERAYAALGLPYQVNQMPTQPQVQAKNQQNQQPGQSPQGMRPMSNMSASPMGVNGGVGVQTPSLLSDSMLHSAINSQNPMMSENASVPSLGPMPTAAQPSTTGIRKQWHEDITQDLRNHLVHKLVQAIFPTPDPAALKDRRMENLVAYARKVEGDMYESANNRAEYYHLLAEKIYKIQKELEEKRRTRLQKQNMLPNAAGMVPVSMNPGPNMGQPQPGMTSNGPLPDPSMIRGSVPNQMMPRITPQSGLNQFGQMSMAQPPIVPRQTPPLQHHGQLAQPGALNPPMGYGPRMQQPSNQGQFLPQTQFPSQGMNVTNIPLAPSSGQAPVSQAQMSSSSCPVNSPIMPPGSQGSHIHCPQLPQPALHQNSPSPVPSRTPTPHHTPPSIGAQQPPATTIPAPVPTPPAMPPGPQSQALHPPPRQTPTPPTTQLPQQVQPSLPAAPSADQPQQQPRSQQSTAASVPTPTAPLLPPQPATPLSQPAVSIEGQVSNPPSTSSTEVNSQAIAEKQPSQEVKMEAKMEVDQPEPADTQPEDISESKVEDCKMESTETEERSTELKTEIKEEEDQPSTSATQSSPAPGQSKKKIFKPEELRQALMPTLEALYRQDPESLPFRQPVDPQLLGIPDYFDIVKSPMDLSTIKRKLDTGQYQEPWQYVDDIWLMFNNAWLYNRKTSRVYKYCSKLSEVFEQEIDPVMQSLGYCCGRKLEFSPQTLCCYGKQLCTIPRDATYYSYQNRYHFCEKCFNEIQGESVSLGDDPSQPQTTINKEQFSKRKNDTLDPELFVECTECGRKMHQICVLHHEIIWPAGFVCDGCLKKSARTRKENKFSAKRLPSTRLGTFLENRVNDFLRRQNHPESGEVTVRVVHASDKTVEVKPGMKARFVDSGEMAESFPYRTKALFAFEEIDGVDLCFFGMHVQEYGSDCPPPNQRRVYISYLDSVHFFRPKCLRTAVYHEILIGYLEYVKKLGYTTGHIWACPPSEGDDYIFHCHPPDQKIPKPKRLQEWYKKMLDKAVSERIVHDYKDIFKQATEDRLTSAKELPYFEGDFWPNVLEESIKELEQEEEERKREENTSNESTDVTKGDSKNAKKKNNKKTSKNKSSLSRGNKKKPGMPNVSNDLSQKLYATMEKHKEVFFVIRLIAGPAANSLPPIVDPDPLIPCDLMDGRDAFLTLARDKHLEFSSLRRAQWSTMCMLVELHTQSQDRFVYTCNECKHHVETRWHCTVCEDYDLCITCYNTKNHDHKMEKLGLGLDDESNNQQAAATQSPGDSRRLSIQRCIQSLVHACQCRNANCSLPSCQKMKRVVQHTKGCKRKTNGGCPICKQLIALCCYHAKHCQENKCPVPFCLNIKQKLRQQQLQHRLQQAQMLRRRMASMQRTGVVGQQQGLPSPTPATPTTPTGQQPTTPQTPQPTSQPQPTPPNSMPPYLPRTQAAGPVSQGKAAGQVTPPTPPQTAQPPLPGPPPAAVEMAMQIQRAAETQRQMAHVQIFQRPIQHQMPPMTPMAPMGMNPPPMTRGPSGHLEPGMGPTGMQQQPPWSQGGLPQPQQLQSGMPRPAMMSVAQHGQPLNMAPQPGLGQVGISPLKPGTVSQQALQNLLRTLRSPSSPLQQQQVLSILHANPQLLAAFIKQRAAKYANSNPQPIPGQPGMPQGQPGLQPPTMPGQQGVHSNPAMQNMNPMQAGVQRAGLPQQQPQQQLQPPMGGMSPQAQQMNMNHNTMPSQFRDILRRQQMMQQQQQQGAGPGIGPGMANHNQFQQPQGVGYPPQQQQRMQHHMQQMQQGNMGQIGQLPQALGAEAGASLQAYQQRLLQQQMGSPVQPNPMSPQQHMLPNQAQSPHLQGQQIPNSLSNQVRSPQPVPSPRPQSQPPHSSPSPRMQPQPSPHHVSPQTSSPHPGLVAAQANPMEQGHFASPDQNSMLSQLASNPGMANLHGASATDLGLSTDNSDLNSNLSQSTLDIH

Row | IC50 [1] [nM] | IC50 [2] [nM] | IC50 [3] [nM] | Structure (SMILES) | GI50 [4] [nM] | GI50 [5] [nM] | Tumor Growth Inhibition Rate ([6]; dose 0.3 mg/kg/day) [%] | Tumor Growth Inhibition Rate ([7]; dose 10 mg/kg/day, QOD×8, 24 days after transplantation) [%] | Tumor Growth Inhibition Rate ([8]; dose 6.25 mg/kg/day) [%] | Tumor Growth Inhibition Rate ([6]; dose 3 mg/kg/day) [%] | Tumor Growth Inhibition Rate ([7]; dose 6 mg/kg/day, QD×16, 24 days after transplantation) [%] | Tumor Growth Inhibition Rate ([8]; dose 12.5 mg/kg/day) [%] | Tumor Growth Inhibition Rate [9] [%] | Tumor Growth Inhibition Rate [10] [%]
1 | 26 | 39 | 22 | O=C(Nc1ccc2[nH]ncc2n1)[C@H]1C[C@@H](F)CN1C(=O)C1(c2ccc(OC(F)F)cc2)CCC(F)(F)CC1 [Example 84, (4R)-1-({1-[4-(Difluoromethoxy)phenyl]-4,4-difluorocyclohexyl}carbonyl)-4-fluoro-N-1H-pyrazolo[4,3-b]pyridin-5-yl-D-prolinamide] | 97.2 | 152 | 66 | 77 |  |  |  |  |  | 
2 | 14 | 18 | 16 | COc1ccc(C2(C(=O)N3C[C@H](F)C[C@@H]3C(=O)Nc3ccc4[nH]ncc4n3)CCCCC2)cc1F [Example 37, (4R)-4-Fluoro-1-{[1-(3-fluoro-4-methoxyphenyl)cyclohexyl]carbonyl}-N-1H-pyrazolo[4,3-b]pyridin-5-yl-D-prolinamide] | 85.9 | 113 |  |  | 42 |  |  |  |  | 
3 | 28 | 67 | 54 | COc1ccc(C2(C(=O)N3C[C@H](F)C[C@@H]3C(=O)Nc3ccc4[nH]ncc4n3)CCC(F)(F)CC2)cc1 [Example 60, (4R)-1-{[4,4-Difluoro-1-(4-methoxyphenyl)cyclohexyl]carbonyl}-4-fluoro-N-1H-pyrazolo[4,3-b]pyridin-5-yl-D-prolinamide] | 211 | 311 |  |  |  | 99 | 89 |  |  | 
4 | 24 | 10 |  | COc1ccc(C2(C(=O)N3C[C@H](F)C[C@@H]3C(=O)Nc3ccc4[nH]ncc4n3)CCCCC2)cc1 [Example 35, (4R)-4-Fluoro-1-{[1-(4-methoxyphenyl)cyclohexyl]carbonyl}-N-1H-pyrazolo[4,3-b]pyridin-5-yl-D-prolinamide] |  |  |  |  |  |  |  | 44 | 51 | 66

Reference: patent publication US11274100B2, “EP300/CREBBP inhibitor” (Daiichi Sankyo Company, Limited, priority 2017, dated 2022)
